Data reported in patent US20030139427A1, “Bicyclic pyrimidinyl derivatives and methods of use thereof” (OSI Pharmaceuticals Inc., priority 2002, published 2003).
Like-named read-outs stand apart in the source and are kept apart here.

Assays:
[1] = target: T1, hA3R (Homo sapiens, UniProt P0DMS8); assay: Displacement binding of [3H]CPX, yeast membranes expressing human A3 receptor; details: read-out: IC50 [nM] hA3R, 0.4 nM [3H]CPX
T1 sequence (P0DMS8 1-318): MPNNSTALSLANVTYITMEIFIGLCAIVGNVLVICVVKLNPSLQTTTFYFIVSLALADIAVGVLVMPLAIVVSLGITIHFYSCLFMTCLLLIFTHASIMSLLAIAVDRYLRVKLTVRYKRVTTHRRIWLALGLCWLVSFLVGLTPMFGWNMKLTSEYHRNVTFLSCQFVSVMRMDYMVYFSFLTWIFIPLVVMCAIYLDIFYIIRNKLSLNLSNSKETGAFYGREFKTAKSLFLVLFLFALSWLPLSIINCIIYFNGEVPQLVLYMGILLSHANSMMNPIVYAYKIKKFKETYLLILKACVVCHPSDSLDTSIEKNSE

[2] = target: T2, human A1 receptor subtype (Homo sapiens, UniProt P30542); details: for Ki: read-out: A1 Binding Ki, Tables 7-13, deazapurine analogues
T2 sequence (P30542 1-326): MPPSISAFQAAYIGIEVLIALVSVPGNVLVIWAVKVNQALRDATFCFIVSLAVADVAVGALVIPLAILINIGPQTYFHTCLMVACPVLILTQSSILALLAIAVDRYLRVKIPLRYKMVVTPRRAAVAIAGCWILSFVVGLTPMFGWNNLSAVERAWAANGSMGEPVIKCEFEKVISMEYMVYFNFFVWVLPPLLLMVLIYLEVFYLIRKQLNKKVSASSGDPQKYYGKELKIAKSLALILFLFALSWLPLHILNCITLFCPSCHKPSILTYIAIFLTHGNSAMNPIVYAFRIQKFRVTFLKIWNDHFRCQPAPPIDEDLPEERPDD

[3] = target: T3, human A3 receptor subtype (Homo sapiens, UniProt P0DMS8); assay: Adenosine 3 receptor competition radioligand binding, [125I]AB-MECA, HEK293 membranes
T3 construct: purchased Receptor Biology (Beltsville, Md.) RB-HA3; host or cells: HEK-293, stably expressing
T3 sequence (P0DMS8 1-318): T1 sequence (P0DMS8 1-318)

[4] = target: T4, human A2b receptor subtype (Homo sapiens, UniProt P29275); assay: Adenosine 2b receptor subtype competition radioligand binding, [3H]DPCPX, HEK293 membranes
T4 construct: purchased Receptor Biology (Beltsville, Md.) RB-HA2b; host or cells: HEK-293, stably expressing
T4 sequence (P29275 1-332): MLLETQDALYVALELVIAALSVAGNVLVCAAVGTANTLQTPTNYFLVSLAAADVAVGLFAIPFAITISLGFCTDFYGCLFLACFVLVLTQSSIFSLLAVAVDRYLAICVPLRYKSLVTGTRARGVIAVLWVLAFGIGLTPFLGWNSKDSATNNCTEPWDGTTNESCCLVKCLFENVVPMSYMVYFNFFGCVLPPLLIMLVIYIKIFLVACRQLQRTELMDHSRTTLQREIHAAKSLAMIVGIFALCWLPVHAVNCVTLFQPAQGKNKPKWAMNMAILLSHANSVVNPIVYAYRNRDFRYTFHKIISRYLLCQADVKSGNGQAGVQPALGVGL

[5] = target: T2, human A1 receptor subtype; assay: biochemical
[6] = target: T5, human A2a receptor subtype (Homo sapiens, UniProt P29274); assay: Adenosine 2a receptor subtype competition radioligand binding, [3H]CGS-21680, HEK293 membranes
T5 construct: purchased Receptor Biology (Beltsville, Md.) RB-HA2a; host or cells: HEK-293, stably expressing
T5 sequence (P29274 whole entry): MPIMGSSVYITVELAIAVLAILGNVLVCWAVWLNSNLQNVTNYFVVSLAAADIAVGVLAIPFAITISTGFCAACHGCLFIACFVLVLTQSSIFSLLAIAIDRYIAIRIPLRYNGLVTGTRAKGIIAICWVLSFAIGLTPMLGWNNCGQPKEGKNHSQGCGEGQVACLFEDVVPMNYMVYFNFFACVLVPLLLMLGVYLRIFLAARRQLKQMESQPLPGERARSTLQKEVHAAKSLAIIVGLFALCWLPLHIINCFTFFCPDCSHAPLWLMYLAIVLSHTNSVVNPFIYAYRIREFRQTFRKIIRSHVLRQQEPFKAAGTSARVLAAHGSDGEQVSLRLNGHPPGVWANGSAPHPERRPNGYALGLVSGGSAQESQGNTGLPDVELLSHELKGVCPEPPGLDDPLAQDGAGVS

[7] = system: PDE4 (Human); assay: PDE4 inhibition; assay type: biochemical

Row | Ki [5] | Ki ([6]; Table 6, read-out: Ki − A2A) | Ki ([4]; Table 6, read-out: Ki − A2B) | Compound | further results
1 | – | – | – | O=c1nc2[nH]c3ccccc3nc-2c(=O)[nH]1 [Alloxazine] | IC50 [1]: 8220 nM
2 | – | – | – | Cc1[nH]c2nc(-c3ccccc3)nc(NC3CCC(OC(=O)c4ccccc4)CC3)c2c1C (stereo not drawn) [Compound 606] | Ki [2]: 298 nM
3 | – | – | – | Cc1[nH]c2nc(-c3ccccc3)nc(N[C@H]3CC[C@H](O)CC3)c2c1C [Compound 1304] | Ki ([3]; Table 14, read-out: Binding Ki (nM) A3): 21.5 nM; Ki ([4]; Table 14, read-out: Binding Ki (nM) A2b): 138 nM
4 | 7.4 nM | 24.8 nM | 22 nM | CC(=O)NCCNc1nc(-c2ccccc2)nc2[nH]cnc12 | –
5 | 52.4 nM | 1530 nM | 4210 nM | O[C@H]1CC[C@H](Nc2nc(-c3ccccc3)nc3[nH]nnc23)CC1 | –
6 | 4.4 nM | 432 nM | 1460 nM | O[C@H]1CC[C@H](Nc2nc(-c3ccccc3)nc3[nH]ncc23)CC1 | Ki ([3]; Table 6, read-out: Ki − A3): 664 nM; PDE4 (Human) Inhibition at 10 μM [7]: 89%
7 | – | – | – | CC(=O)NCCNc1nc(-c2ccccc2)nc2[nH]c(C)c(C)c12 [Compound 1300] | Ki [6]: 18 to 48.6 nM
8 | – | – | – | Cc1[nH]c2nc(-c3ccccc3)nc(NC3CCC(OC(=O)c4ccccc4)CC3)c2c1C (stereo not drawn) [Compound 611] | Ki [2]: 786 nM
9 | 0.9 nM | 19.1 nM | 63.1 nM | NC(=O)[C@@H]1CCCN1c1nc(-c2ccccc2)nc2[nH]cnc12 | –
10 | – | – | – | O[C@H]1CC[C@H](Nc2nc(-c3ccncc3)nc3[nH]ccc23)CC1 [Compound 1321] | A3, % activity @ 10 μM ([3]; Table 14, 10 μM): 54%^8
11 | 0.6 nM | 66.8 nM | 97.4 nM | NC(=O)[C@@H]1CCCN1c1nc(-c2ccccc2)nc2[nH]ncc12 | Ki ([3]; Table 6, read-out: Ki − A3): 261 nM; PDE4 (Human) Inhibition at 10 μM [7]: 34%
12 | 1.5 nM | 96.8 nM | 69.3 nM | O[C@H]1CC[C@H](Nc2nc(-c3ccccc3)nc3[nH]cnc23)CC1 | Ki ([3]; Table 6, read-out: Ki − A3): 174 nM; PDE4 (Human) Inhibition at 10 μM [7]: 79%
13 | 76.7 nM | 243 nM | 1480 nM | NC(=O)[C@H]1CCCN1c1nc(-c2ccccc2)nc2[nH]ncc12 | –
14 | – | – | – | O[C@H]1CC[C@H](Nc2nc(-c3ccccc3)nc3[nH]c(CN4CCOCC4)cc23)CC1 [Compound 1503] | Ki-A1 (Adenosine A1 Receptor Selective Compounds) ([2]; selectivity versus other three subtypes): * (at least 10 times more selective than other three subtypes.)
15 | 11.4 nM | 49.5 nM | 32.1 nM | CC(=O)NCCNc1nc(-c2ccccc2)nc2[nH]ncc12 | –
16 | 12.3 nM | 21.1 nM | 168 nM | NC(=O)[C@H]1CCCN1c1nc(-c2ccccc2)nc2[nH]cnc12 | –
17 | 81.3 nM | 5540 nM | 5560 nM | NC(=O)[C@@H]1CCCN1c1nc(-c2ccccc2)nc2[nH]nnc12 | –
18 | – | – | – | CNC(=O)NCCCNc1nc(-c2ccccc2)nc2[nH]c(C)c(C)c12 [Compound 1310] | A2a, value printed as % in Ki column ([6]; Table 14): 76%
